Legend:
[1] = biological target: human Gal-1 (hGal-1) (Homo sapiens, UniProt P09382, C131S/C17S/C43S/C61S/C89S); test: Competitive binding assay: biotinylated hGal-1 binding to microplate-adsorbed asialofetuin (ASF); conditions: IC50 values from several measurements given as geomean
Summary of the method: (§1)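 Biotinylated hGal-3 or hGal-1 (preferably cysteine-free Cys→Ser mutant), 300–1000 ng/mL, competes with compound for ASF-coated wells for 3 h at 4 °C. Bound lectin detected with streptavidin-peroxidase (80 ng/mL, 1 h, 4 °C) and ABTS by absorbance; IC50 reported as geomean of several runs.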

[2] = biological target: human Gal-3 (hGal-3) (Homo sapiens (Human), UniProt P17931); test: Competitive binding assay: biotinylated hGal-3 binding to microplate-adsorbed asialofetuin (ASF); conditions: IC50 values from several measurements given as geomean
Sequence of human Gal-3 (hGal-3) (P17931 whole entry): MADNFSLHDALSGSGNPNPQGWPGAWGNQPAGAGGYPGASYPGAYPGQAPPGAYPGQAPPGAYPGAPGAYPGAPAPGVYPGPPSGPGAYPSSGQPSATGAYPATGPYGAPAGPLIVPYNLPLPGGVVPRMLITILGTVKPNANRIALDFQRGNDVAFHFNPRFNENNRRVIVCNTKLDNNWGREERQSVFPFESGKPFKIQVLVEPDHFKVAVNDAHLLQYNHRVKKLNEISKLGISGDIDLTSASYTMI
Summary of the method: as §1

Row | IC50 [1] | IC50 [2] | SMILES
1 | 2250 nM | 60 nM | CO[C@@H]1[C@@H](n2cc(-c3ccc(Cl)c(F)c3F)nn2)[C@@H](O)[C@@H](CO)O[C@@H]1Cc1cn(C2(CO)CCCC2)nn1 [Ex 2.1.5.]
2 | 520 nM | 20 nM | CO[C@@H]1[C@@H](n2cc(-c3ccc(C)c(F)c3F)nn2)[C@@H](O)[C@@H](CO)O[C@@H]1Cc1cn(C2(C(F)F)COC2)nn1 [Ex 1.1.53., (2R,3R,4S,5R,6R)-4-(4-(2,3-difluoro-4-methylphenyl)-1H-1,2,3-triazol-1-yl)-6-((1-(3-(difluoromethyl)oxetan-3-yl)-1H-1,2,3-triazol-4-yl)methyl)-2-(hydroxymethyl)-5-methoxytetrahydro-2H-pyran-3-ol]
3 | 2090 nM | 40 nM | CO[C@@H]1[C@@H](n2cc(-c3ccc(C)c(F)c3F)nn2)[C@@H](O)[C@@H](CO)O[C@@H]1Cc1cn(C2(CO)CCC2)nn1 [Ex 1.1.11.]
4 | 1620 nM | 40 nM | CO[C@@H]1[C@@H](n2cc(-c3ccc(Cl)c(F)c3F)nn2)[C@@H](O)[C@@H](CO)O[C@@H]1Cc1cn([C@@H]2COC[C@@H]2F)nn1 (single isomer, unassigned) [Example 2.1.74.B, (2R,3R,4S,5R,6R)-4-(4-(4-chloro-2,3-difluorophenyl)-1H-1,2,3-triazol-1-yl)-6-((1-((3R*,4R*)-4-fluorotetrahydrofuran-3-yl)-1H-1,2,3-triazol-4-yl)methyl)-2-(hydroxymethyl)-5-methoxytetrahydro-2H-pyran-3-ol]
5 | 1930 nM | 50 nM | CO[C@@H]1[C@@H](n2cc(-c3ccc(Br)c(F)c3F)nn2)[C@@H](O)[C@@H](CO)O[C@@H]1Cn1cc(C2(C)CCC2)nn1 [Ex 4.2.13.]
6 | 520 nM | 40 nM | CO[C@@H]1[C@@H](n2cc(-c3ccc(F)c(F)c3F)nn2)[C@@H](O)[C@@H](CO)O[C@@H]1Cc1cn(C23COC(C)(C2)C3)nn1 [Ex 3.1.59.]
7 | 3990 nM | 70 nM | CO[C@@H]1[C@@H](n2cc(-c3ccc(C#N)c(F)c3F)nn2)[C@@H](O)[C@@H](CO)O[C@@H]1Cc1cn(C2(C)COC2)nn1 [Ex 5.1.6.]
8 | 5130 nM | 60 nM | CO[C@@H]1[C@@H](n2cc(-c3ccc(C)c(F)c3F)nn2)[C@@H](O)[C@@H](CO)O[C@@H]1Cn1cc(C2CCCC2)nn1 [Ex 1.2.32.]
9 | 420 nM | 60 nM | CO[C@@H]1[C@@H](n2cc(-c3ccc(F)c(F)c3F)nn2)[C@@H](O)[C@@H](CO)O[C@@H]1Cc1cn(C2(CCO)COC2)nn1 [Ex 3.1.22.]
10 | 1070 nM | 30 nM | CO[C@@H]1[C@@H](n2cc(-c3ccc(Cl)c(F)c3F)nn2)[C@@H](O)[C@@H](CO)O[C@@H]1Cc1cn(C2(CF)CC2)nn1 [Ex 2.1.46.]
11 | 1910 nM | 70 nM | CO[C@@H]1[C@@H](n2cc(-c3ccc(C#N)c(F)c3F)nn2)[C@@H](O)[C@@H](CO)O[C@@H]1Cc1cn(C2(C(F)(F)F)COC2)nn1 [Ex 5.1.58.]
12 | 1020 nM | 20 nM | CO[C@@H]1[C@@H](n2cc(-c3ccc(Cl)c(F)c3F)nn2)[C@@H](O)[C@@H](CO)O[C@@H]1Cc1cn(C2CCCCC2(F)F)nn1 (single isomer, unassigned) [Example 2.1.80.A]
13 | 600 nM | 60 nM | CO[C@@H]1[C@@H](n2cc(-c3ccc(F)c(F)c3F)nn2)[C@@H](O)[C@@H](CO)O[C@@H]1Cc1cn(C2(CO)CCCC2)nn1 [Ex 3.1.5.]
14 | 44000 nM | 70 nM | CO[C@@H]1[C@@H](n2cc(-c3ccc(C)c(F)c3F)nn2)[C@@H](O)[C@@H](CO)O[C@@H]1Cc1cn(C(C)(C)CO)nn1 [Ex 1.1.9.]
15 | 2780 nM | 50 nM | CO[C@@H]1[C@@H](n2cc(-c3ccc(Cl)c(F)c3F)nn2)[C@@H](O)[C@@H](CO)O[C@@H]1Cc1cn(C2CC23CC3(F)F)nn1 (stereo partly drawn) [Ex 2.1.75., (2R,3R,4S,5R,6R)-4-(4-(4-chloro-2,3-difluorophenyl)-1H-1,2,3-triazol-1-yl)-6-((1-(4,4-difluorospiro[2.2]pentan-1-yl)-1H-1,2,3-triazol-4-yl)methyl)-2-(hydroxymethyl)-5-methoxytetrahydro-2H-pyran-3-ol]
16 | 5120 nM | 70 nM | CO[C@@H]1[C@@H](n2cc(-c3ccc(Cl)c(F)c3F)nn2)[C@@H](O)[C@@H](CO)O[C@@H]1Cn1cc(C(C)(C)O)nn1 [Ex 2.2.34.]
17 | 810 nM | 20 nM | CO[C@@H]1[C@@H](n2cc(-c3ccc(Cl)c(F)c3F)nn2)[C@@H](O)[C@@H](CO)O[C@@H]1Cc1cn(C2(CF)CC2(F)F)nn1 (stereo partly drawn) [Ex 2.1.76., (2R,3R,4S,5R,6R)-4-(4-(4-chloro-2,3-difluorophenyl)-1H-1,2,3-triazol-1-yl)-6-((1-(2,2-difluoro-1-(fluoromethyl)cyclopropyl)-1H-1,2,3-triazol-4-yl)methyl)-2-(hydroxymethyl)-5-methoxytetrahydro-2H-pyran-3-ol]

Row | IC50 [1] | IC50 [2] | SMILES
18 | 1740 nM | 30 nM | CO[C@@H]1[C@@H](n2cc(-c3ccc(Br)c(F)c3F)nn2)[C@@H](O)[C@@H](CO)O[C@@H]1Cc1cn([C@@H]2CCCC2(F)F)nn1 [Example 4.1.64.A, (2R,3R,4S,5R,6R)-4-(4-(4-bromo-2,3-difluorophenyl)-1H-1,2,3-triazol-1-yl)-6-((1-((R)-2,2-difluorocyclopentyl)-1H-1,2,3-triazol-4-yl)methyl)-2-(hydroxymethyl)-5-methoxytetrahydro-2H-pyran-3-ol]
19 | 810 nM | 60 nM | CO[C@@H]1[C@@H](n2cc(-c3ccc(F)c(F)c3F)nn2)[C@@H](O)[C@@H](CO)O[C@@H]1Cc1cn(C23CCOC(C)(C2)C3)nn1 [Ex 3.1.62.]
20 | 1100 nM | 30 nM | CO[C@@H]1[C@@H](n2cc(-c3ccc(Cl)c(F)c3F)nn2)[C@@H](O)[C@@H](CO)O[C@@H]1Cc1cn([C@]2(C)CCO[C@@H]2C)nn1 (single isomer, unassigned) [Example 2.1.68.A, (2R,3R,4S,5R,6R)-4-(4-(4-chloro-2,3-difluorophenyl)-1H-1,2,3-triazol-1-yl)-6-((1-((2R*,3R*)-2,3-dimethyltetrahydrofuran-3-yl)-1H-1,2,3-triazol-4-yl)methyl)-2-(hydroxymethyl)-5-methoxytetrahydro-2H-pyran-3-ol]
21 | 1330 nM | 30 nM | CCC(C)(C)n1cc(C[C@H]2O[C@H](CO)[C@H](O)[C@H](n3cc(-c4ccc(Cl)c(F)c4F)nn3)[C@H]2OC)nn1 [Ex 2.1.49., (2R,3R,4S,5R,6R)-4-(4-(4-Chloro-2,3-difluorophenyl)-1H-1,2,3-triazol-1-yl)-2-(hydroxymethyl)-5-methoxy-6-((1-(tert-pentyl)-1H-1,2,3-triazol-4-yl)methyl)tetrahydro-2H-pyran-3-ol]
22 | 2210 nM | 40 nM | CO[C@@H]1[C@@H](n2cc(-c3ccc(C)c(F)c3F)nn2)[C@@H](O)[C@@H](CO)O[C@@H]1Cc1cn(C2(C)COC2)nn1 [Ex 1.1.6.]
23 | 1190 nM | 40 nM | CO[C@@H]1[C@@H](n2cc(-c3ccc(Cl)c(F)c3F)nn2)[C@@H](O)[C@@H](CO)O[C@@H]1Cc1cn(C2CC(F)C2)nn1 (single isomer, unassigned) [Example 2.1.60.B]
24 | 900 nM | 50 nM | COCC1(n2cc(C[C@H]3O[C@H](CO)[C@H](O)[C@H](n4cc(-c5ccc(Cl)c(F)c5F)nn4)[C@H]3OC)nn2)COC1 [Ex 2.1.21.]
25 | 870 nM | 20 nM | CO[C@@H]1[C@@H](n2cc(-c3ccc(Cl)c(F)c3F)nn2)[C@@H](O)[C@@H](CO)O[C@@H]1Cc1cn(C2CCOCC2(F)F)nn1 (single isomer, unassigned) [Example 2.1.89.B]
26 | 2180 nM | 60 nM | CO[C@@H]1[C@@H](n2cc(-c3ccc(Cl)c(F)c3F)nn2)[C@@H](O)[C@@H](CO)O[C@@H]1Cc1cn([C@H]2CCCC[C@@H]2F)nn1 [Example 2.1.81.D, (2R,3R,4S,5R,6R)-4-(4-(4-chloro-2,3-difluorophenyl)-1H-1,2,3-triazol-1-yl)-6-((1-((1S,2S)-2-fluorocyclohexyl)-1H-1,2,3-triazol-4-yl)methyl)-2-(hydroxymethyl)-5-methoxytetrahydro-2H-pyran-3-ol]
27 | 1110 nM | 120 nM | CO[C@@H]1[C@@H](n2cc(-c3ccc(F)c(F)c3F)nn2)[C@@H](O)[C@@H](CO)O[C@@H]1Cc1cn(C2CC3(COC3)C2)nn1 [Ex 3.1.16.]
28 | 2410 nM | 50 nM | CO[C@@H]1[C@@H](n2cc(-c3ccc(Br)c(F)c3F)nn2)[C@@H](O)[C@@H](CO)O[C@@H]1Cc1cn(C2(C)CC(F)(F)C2)nn1 [Ex 4.1.15.]
29 | 4600 nM | 70 nM | CO[C@@H]1[C@@H](n2cc(-c3ccc(Br)c(F)c3F)nn2)[C@@H](O)[C@@H](CO)O[C@@H]1Cn1cc(C2(O)CCOCC2)nn1 [Ex 4.2.35.]
30 | 1170 nM | 30 nM | CO[C@@H]1[C@@H](n2cc(-c3ccc(Br)c(F)c3F)nn2)[C@@H](O)[C@@H](CO)O[C@@H]1Cc1cn(C2(C(F)(F)F)CC2)nn1 [Ex 4.1.54.]
31 | 2610 nM | 40 nM | CO[C@@H]1[C@@H](n2cc(-c3ccc(C)c(F)c3F)nn2)[C@@H](O)[C@@H](CO)O[C@@H]1Cc1cn(C23CC(C)(C2)C3)nn1 [Ex 1.1.14.]
32 | 28100 nM | 500 nM | CO[C@@H]1[C@@H](n2cc(-c3ccc(Cl)c(F)c3F)nn2)[C@@H](O)[C@@H](CO)O[C@@H]1Cc1cn(C2CC(C(F)(F)F)(C(F)(F)F)C2)nn1 [Ex 2.1.57.]
33 | 1350 nM | 60 nM | CO[C@@H]1[C@@H](n2cc(-c3ccc(C#N)c(F)c3F)nn2)[C@@H](O)[C@@H](CO)O[C@@H]1Cc1cn(C2(C(F)F)COC2)nn1 [Ex 5.1.53., 4-(1-((2R,3R,4S,5R,6R)-2-((1-(3-(Difluoromethyl)oxetan-3-yl)-1H-1,2,3-triazol-4-yl)methyl)-5-hydroxy-6-(hydroxymethyl)-3-methoxytetrahydro-2H-pyran-4-yl)-1H-1,2,3-triazol-4-yl)-2,3-difluorobenzonitrile]

From US20240109930A1, “TRIAZOLYL-METHYL SUBSTITUTED ALPHA-D-GALACTOPYRANOSIDE DERIVATIVES” (Idorsia Pharmaceuticals Ltd, priority 2021, published 2024)
